# Test results reported in patent publication US8304384B2, “Caspase-8 and inflammation, infection and wound healing” (Yeda Research and Development Co., Ltd, priority 2006, dated 2012).
# Entries after “also recorded” stand apart in the source; their conditions may differ.
# Experiments:
# Kupffer cells [1] = details: stated as a known fact, no experiment of the patent described; cited from earlier work
# Kupffer cells [2] = test: Gadolinium chloride treatment after partial hepatectomy (PHx) in Casp8F/-:Alb-Cre mice; format: in vivo; details: 1/3 PHx, 10 mg/kg i.p. on days 10 and 12 after PHx
# Procedure: (iii) Partial Hepatectomy and Gadolinium Chloride Administration. Age-matched Casp8^F/−: Alb-Cre mice and Casp8^F/+: Alb-Cre mice were lightly anesthetized with intraperitoneally (i.p.) administered xylazine […] (Chanelle Pharmaceuticals Manufacturing, Loughrea, Galway, Ireland) and ketamine […] (Fort Dodge Animal Health, Fort Dodge, Iowa). It was performed ‘one-third’ (30%) PHx by excising the median lobe of the liver, and ‘two-thirds’ (70%) PHx by excising the median, left, and right upper lobes as described (Higgins et al., 1931 and Greene et al., 2003). Mice were imaged before PHx and afterwards on days 0-56 (every other day during the first week and weekly from then on). On days 10 and 12 after PHx the mice were injected i.p. with gadolinium chloride (Sigma-Aldrich, St. Louis, Mo.) in saline at a dosage of 10 mg/kg.
# (iv) MRI Analysis Technique. Magnetic resonance imaging (MRI) experiments were performed using a horizontal 4.7 T Biospec spectrometer (Bruker Medical, Ettlingen, Germany) with a 4.2-cm birdcage coil. Mice were anesthetized (with pentobarbital 30 mg/kg, i.p.) and placed supine with the liver located at the center of the coil. Liver volume was determined from multi-slice coronal and axial T1-weighted spin echo images (repetition time=400 ms; echo time=18 ms; slice thickness=1 mm). In brief, the liver boundary visualized in each slice was outlined using image-processing software (NIH Image). […] The total liver volume was calculated as the summed area of all slices, multiplied by the slice thickness. For each mouse the liver volume was expressed as a percentage of the preoperative liver volume. […]
# Cells expressing F4/80 were detected similarly, using rat anti-mouse F4/80 antibody (Serotec Oxford, UK), except that for antigen retrieval the paraffin sections were treated for 3 minutes at room temperature with a solution containing 20 mM Tris (pH 7.5), 0.1% trypsin, and 0.1% calcium chloride. The macrophage content of the livers was determined by quantifying the F4/80 positive areas in the slides using the ImageJ 1.37r software.
smiles,measurement,setting,value
[Cl][Gd]([Cl])[Cl] [gadolinium chloride],hepatocyte proliferation facilitated early after PHx,Kupffer cells [1],"does not decrease, but rather is enhanced"
same,"late (delayed) hepatocyte proliferation, anti-Ki67 stained nuclei in 10 high-power fields","Kupffer cells [2]; 14th day after PHx, 10 mg/kg",practically wiped out the increase in hepatocyte proliferation; also recorded: arrest of the delayed hepatocyte proliferation
same,"liver volume / excessive increase in liver size (hepatomegaly), MRI scans","Kupffer cells [2]; 14th day after PHx, 10 mg/kg",curtailed; also recorded: prevention of hepatomegaly
same,"inflammatory cells (macrophages, anti-F4/80 staining) accumulated in the liver",Kupffer cells [2]; liver examined 14 days after PHx,substantially decreasing the inflammatory cells that had accumulated
